From patent publication US9770446B2, “Piperidine urea derivatives” (MERCK PATENT GMBH, priority 2013, dated 2017)

Columns and labels:
[1] = biological target: T1, GST-tagged Tnks-2 (873-1166 aa) (Homo sapiens, UniProt Q9H2K2); experiment: TNKS2 activity ELISA (autoparsylation assay); type: biochemical
T1 construct: GST-tagged Tnks-2 (873-1166 aa, prepared in-house); made in house
Experimental: (§1) Description of the TNKS1 and TNKS2 ELISA Assay
(§2) Biochemical Activity Testing of TNKS 1 and 2: Activity ELISA (Autoparsylation Assay)
(§3) For analysis of autoparsylation activity of TNKS 1 and 2 an activity ELISA iss performed: In the first step GST tagged TNKS is captured on a Glutathione coated plate. Then the activity assay with biotinylated NAD is performed in the absence/presence of the compounds. During the enzymatic reaction GST tagged TNKS transfers biotinylated ADP-ribose to itself from biotinylated NAD as co-substrate. For the detection streptavidin-HRP conjugate is added that binds to the biotinylated TNKS and is thereby captured to the plates. The amount of biotinylated resp. autoparsylated TNKS is detected with a luminescence substrate for HRP. The level of the luminescence signal correlates directly with the amount of autoparsylated TNKS and therefore with activity of TNKS.
(§4) The activity ELISA is performed in 384 well Glutathione coated microtiter plates (Express capture Glutathione coated plate, Biocat, Heidelberg, Germany). The plates are pre-equilibrated with PBS. Then the plates are incubated with 50 μl 20 ng/well GST-tagged Tnks-1 (1023-1327 aa, prepared in-house), respectively GST-tagged Tnks-2 (873-1166 aa, prepared in-house) in assay buffer (50 mM HEPES, 4 mM Mg-chloride, 0.05% Pluronic F-68, 2 mM DTT, pH 7.7) overnight at 4° C. The plates are washed 3 times with PBS-Tween-20. The wells are blocked by incubation at room temperature for 20 minutes with 50 μl blocking buffer (PBS, 0.05% Tween-20, 0.5% BSA). Afterwards the plates are washed 3 times with PBS-Tween-20. The enzymatic reaction is performed in 50 μl reaction solution (50 mM HEPES, 4 mM Mg-chloride, 0.05% Pluronic F-68, 1.4 mM DTT, 0.5% DMSO, pH 7.7) with 10 μM bio-NAD (Biolog, Life science Inst., Bremen, Germany) as co-substrate in the absence or presence of the test compound (10 dilution concentrations) for 1 hour at 30° C. The reaction is stopped by 3 times washing with PBS-Tween20. For the detection 50 μl of 20 ng/μl Streptavidin, HRP conjugate (MoBiTec, Göttingen, Germany) in PBS/0.05% Tween-20/0.01% BSA are added and the plates are incubated for 30 minutes at room temperature. After three times washing with PBS-Tween-20 50 μl of SuperSignal ELISA Femto Maximum sensitivity substrate solution (ThermoFisherScientific (Pierce), Bonn, Germany) are added. Following a 1 minute incubation at room temperature luminescence signals are measured with an Envision multimode reader (Perkin Elmer LAS Germany GmbH) at 700 nm. The full value used is the inhibitor-free reaction. The pharmacological zero value used is XAV-939 (Tocris) in a final concentration of 5 μM. The inhibitory values (IC50) are determined using either the program Symyx Assay Explorer® or Condosseo® from GeneData.

[2] = biological target: T2, GST-tagged Tnks-1 (1023-1327 aa) (Homo sapiens, UniProt O95271); experiment: TNKS1 activity ELISA (autoparsylation assay); type: biochemical
T2 construct: GST-tagged Tnks-1 (1023-1327 aa, prepared in-house); made in house
Experimental: as §1, §2, §3, §4

[3] = tested on: Tankyrase; experiment: Cellular inhibition of Tankyrase: Axin2 level in DLD1 cells (Luminex); type: cell-based; settings: 24 hours, Axin2 increase, read-out: EC50 [M] TNKS cellular assay
Experimental: Measurement of Cellular Inhibition of Tankyrase
Since Tankyrases have been described to modulate cellular level of Axin2 (Huang et al., 2009; Nature) the increase of Axin2 level is used as read-out for determination of cellular inhibition of Tankyrases in a Luminex based assay.
Cells of the colon carcinoma cell line DLD1 are plated in 96 well plates with 1.5×10^4 cells per well. Next day, cells are treated with a serial dilution of test compound in seven steps as triplicates with a final DMSO concentration of 0.3%. After 24 hours, cells are lysed in lysis buffer (20 mM Tris/HCl pH 8.0, 150 mM NaCl, 1% NP40, 10% Glycerol) and lysates are cleared by centrifugation through a 96 well filter plate (0.65 μm). Axin2 protein is isolated from cell lysates by incubation with a monoclonal anti-Axin2 antibody (R&D Systems #MAB6078) that is bound to fluorescent carboxybeads. Then, bound Axin2 is specifically detected with a polyclonal anti-Axin2 antibody (Cell Signaling #2151) and an appropriate PE-fluorescent secondary antibody. The amount of isolated Axin2 protein is determined in a Luminex^200 machine (Luminex Corporation) according to the manufacturer's instruction by counting 100 events per well. Inhibition of Tankyrase by test compounds results in higher levels of Axin2 which directly correlates with an increase of detectable fluorescence. As controls cells are treated with solvent alone (neutral control) and with a Tankyrase reference inhibitor IWR-2 (3E-06 M) which refers as control for maximum increase of Axin2. For analysis, the obtained data are normalized against the untreated solvent control and fitted for determination of the EC50 values using the Assay Explorer software (Accelrys).

[4] = biological target: T3, GST-tagged Tankyrase-2 (873-1166 aa) (Homo sapiens, UniProt Q9H2K2); experiment: Tankyrase 2 autoparsylation HTRF enzyme assay; type: biochemical; settings: read-out: IC50 TNKS2 enzyme assay
T3 construct: GST-tagged Tankyrase-2 (873-1166 aa)
Experimental: (§5) Biochemical activity testing of Tankyrase 1 and 2: Autoparsylation assay
(§6) The autoparsylation assay is run in two steps: the enzymatic reaction in which GST-tagged Tankyrase-1, resp Tankyrase-2 transferred biotinylated ADP-ribose to itself from biotinylated NAD as co-substrate and the detection reaction where a time resolved FRET between cryptate labelled anti-GST bound to the GST tag of the enzyme and Xlent® labelled-streptavidin bound the biotin-parsylation residue is analysed. The autoparsylation activity was detectable directly via the increase in HTRF signal.
(§7) The autoparsylation assay is performed as 384-well HTRF® (Cisbio, Codolet, France) assay format in Greiner low volume nb 384-well microtiter plates and is used for high throughput screen. 250 nM GST-tagged Tankyrase-1 (1023-1327 aa), respectively about 250 nM GST-tagged Tankyrase-2 (873-1166 aa) and 5 μM bio-NAD (Biolog, Life science Inst., Bremen, Germany) as co-substrate are incubated in a total volume of 5 μl (50 mM HEPES, 4 mM Mg-chloride, 0.05% Pluronic F-68, 1.4 mM DTT, 0.5% DMSO, pH 7.7) in the absence or presence of the test compound (10 dilution concentrations) for 90 min at 30° C. The reaction is stopped by the addition of 1 μl 50 mM EDTA solution. 2 μl of the detection solution (1.6 μM SA-Xlent® (Cisbio, Codolet, France), 7.4 nM Anti-GST-K® (Eu-labelled anti-GST, Cisbio, Codolet, France) in 50 mM HEPES, 800 mM KF, 0.1% BSA, 20 mM EDTA, 0.1% CHAPS, pH 7.0) are added. After 1 h incubation at room temperature the HTRF is measured with an Envision multimode reader (Perkin Elmer LAS Germany GmbH) at excitation wavelength 340 nm (laser mode) and emission wavelengths 615 nm and 665 nm. The ratio of the emission signals is determined. The full value used is the inhibitor-free reaction. The pharmacological zero value used is XAV-939 (Tocris) in a final concentration of 5 μM. The inhibitory values (IC50) are determined using either the program Symyx Assay Explorer® or Condosseo® from GeneData.

[5] = biological target: T4, GST-tagged Tankyrase-1 (1023-1327 aa) (Homo sapiens, UniProt O95271); experiment: Tankyrase 1 autoparsylation HTRF enzyme assay; type: biochemical; settings: read-out: IC50 TNKS1 enzyme assay
T4 construct: GST-tagged Tankyrase-1 (1023-1327 aa)
Experimental: as §5, §6, §7

T3 sequence (Q9H2K2 873-1166): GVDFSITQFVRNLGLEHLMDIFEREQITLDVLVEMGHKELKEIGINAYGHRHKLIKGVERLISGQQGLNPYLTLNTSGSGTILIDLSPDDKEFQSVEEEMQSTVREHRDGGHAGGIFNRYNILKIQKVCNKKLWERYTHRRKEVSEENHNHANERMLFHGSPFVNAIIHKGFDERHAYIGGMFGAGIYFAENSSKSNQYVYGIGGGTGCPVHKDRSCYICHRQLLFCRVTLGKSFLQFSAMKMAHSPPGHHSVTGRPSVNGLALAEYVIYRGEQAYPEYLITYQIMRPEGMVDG
T1 sequence (Q9H2K2 873-1166): as above
T4 sequence (O95271 1023-1327): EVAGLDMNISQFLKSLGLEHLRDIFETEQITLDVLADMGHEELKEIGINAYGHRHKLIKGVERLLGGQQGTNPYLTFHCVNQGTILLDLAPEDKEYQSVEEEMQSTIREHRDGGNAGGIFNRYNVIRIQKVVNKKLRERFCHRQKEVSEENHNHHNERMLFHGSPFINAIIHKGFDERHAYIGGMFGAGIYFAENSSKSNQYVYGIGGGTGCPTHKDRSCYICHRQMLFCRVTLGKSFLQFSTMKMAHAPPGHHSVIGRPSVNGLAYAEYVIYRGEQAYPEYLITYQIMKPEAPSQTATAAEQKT
T2 sequence (O95271 1023-1327): as above

O=C(c1ccccc1)C1CCN(C(=O)N2CCCc3ccccc32)CC1 [Compound A22, (4-benzoyl-piperidin-1-yl)-(3,4-dihydro-2H-quinolin-1-yl)-methanone]
IC50 [1]: 0.3 to 3 µM | IC50 [2]: 0.3 to 3 µM | EC50 [3]: 3e-06 to 5e-05 M | IC50 [4]: 3 to 50 µM | IC50 [5]: 3 to 50 µM

COc1ccc(N(C)C(=O)N2CCC(C(=O)c3ccc(OC)c(C)c3)CC2)cc1 [Compound A23, 4-(4-methoxy-3-methyl-benzoyl)-piperidine-1-carboxylic acid (4-methoxy-phenyl)-methyl-amide]
IC50 [1]: < 0.3 µM | IC50 [2]: < 0.3 µM | EC50 [3]: < 3e-07 M | IC50 [4]: 0.3 to 3 µM | IC50 [5]: < 0.3 µM

COc1ccc(N(C)C(=O)N2CCC(C(=O)c3ccc(OC)c(F)c3)CC2)cn1 [Compound A42, 4-(3-fluoro-4-methoxy-benzoyl)-N-(6-methoxy-3-pyridyl)-N-methyl-piperidine-1-carboxamide]
IC50 [1]: < 0.3 µM | IC50 [2]: < 0.3 µM | EC50 [3]: < 3e-07 M | IC50 [4]: 0.3 to 3 µM | IC50 [5]: < 0.3 µM

COc1ccc(N(C)C(=O)N2CCC(C(=O)c3cccc(C)c3)CC2)cn1 [Compound A45, N-(6-methoxy-3-pyridyl)-N-methyl-4-(3-methylbenzoyl)piperidine-1-carboxamide]
IC50 [1]: < 0.3 µM | IC50 [2]: < 0.3 µM | EC50 [3]: < 3e-07 M | IC50 [4]: 0.3 to 3 µM | IC50 [5]: 0.3 to 3 µM

COc1ccc(N(C)C(=O)N2CCC(C(=O)c3ccc(C)cc3)CC2)cn1 [Compound A46, N-(6-methoxy-3-pyridyl)-N-methyl-4-(4-methylbenzoyl)piperidine-1-carboxamide]
IC50 [1]: < 0.3 µM | IC50 [2]: < 0.3 µM | EC50 [3]: 3e-07 to 3e-06 M | IC50 [4]: 0.3 to 3 µM | IC50 [5]: 0.3 to 3 µM

COc1cccc(C(=O)C2CCN(C(=O)N(C)c3ccc(OC)nc3)CC2)c1 [Compound A47, 4-(3-methoxybenzoyl)-N-(6-methoxy-3-pyridyl)-N-methyl-piperidine-1-carboxamide]
IC50 [1]: < 0.3 µM | IC50 [2]: < 0.3 µM | EC50 [3]: 3e-07 to 3e-06 M | IC50 [4]: 0.3 to 3 µM | IC50 [5]: 0.3 to 3 µM

COc1ccc(C(=O)C2CCN(C(=O)N(C)c3ccc(OC)nc3)CC2)cc1 [Compound A49, 4-(4-methoxybenzoyl)-N-(6-methoxy-3-pyridyl)-N-methyl-piperidine-1-carboxamide]
IC50 [1]: < 0.3 µM | IC50 [2]: < 0.3 µM | EC50 [3]: < 3e-07 M | IC50 [4]: 0.3 to 3 µM | IC50 [5]: < 0.3 µM

COc1ccc(N(C)C(=O)N2CCC(C(=O)c3cccc(F)c3)CC2)cn1 [Compound A50, 4-(3-fluorobenzoyl)-N-(6-methoxy-3-pyridyl)-N-methyl-piperidine-1-carboxamide]
IC50 [1]: < 0.3 µM | IC50 [2]: < 0.3 µM | EC50 [3]: 3e-07 to 3e-06 M | IC50 [4]: 0.3 to 3 µM | IC50 [5]: 0.3 to 3 µM

COc1ccc(N(C)C(=O)N2CCC(C(=O)c3ccc(F)cc3)CC2)cn1 [Compound A51, 4-(4-fluorobenzoyl)-N-(6-methoxy-3-pyridyl)-N-methyl-piperidine-1-carboxamide]
IC50 [1]: < 0.3 µM | IC50 [2]: < 0.3 µM | EC50 [3]: 3e-07 to 3e-06 M | IC50 [4]: 0.3 to 3 µM | IC50 [5]: 0.3 to 3 µM
